Source: PubChem BioAssay (NCI)
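Tested at 5 concentrations; 48 h exposure; 96-well plates; endpoints linearly interpolated, else capped at highest concentration. GI50 marks 50% less growth. TGI denotes the concentration required for complete inhibition of growth.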

Columns and labels:
Test in all cases: NCI-60 cell line screen, 48 h
ACHN renal = test system: ACHN renal
CAKI-1 renal = test system: CAKI-1 renal
COLO 205 colon = test system: COLO 205 colon
HL-60(TB) leukemia = test system: HL-60(TB) leukemia
HOP-62 NSCLC = test system: HOP-62 NSCLC
HS 578T breast = test system: HS 578T breast
IGROV1 ovarian = test system: IGROV1 ovarian
SN12C renal = test system: SN12C renal
SW-620 colon = test system: SW-620 colon
NCI-H226 lung = test system: NCI-H226 lung

Row | SMILES | TGI (ACHN renal) | TGI (CAKI-1 renal) | TGI (COLO 205 colon) | TGI (HL-60(TB) leukemia) | TGI (HOP-62 NSCLC) | TGI (HS 578T breast) | TGI (IGROV1 ovarian) | TGI (SN12C renal) | TGI (SW-620 colon) | TGI (NCI-H226 lung) | GI50 (ACHN renal) | GI50 (CAKI-1 renal) | GI50 (COLO 205 colon) | GI50 (HL-60(TB) leukemia) | GI50 (HOP-62 NSCLC) | GI50 (HS 578T breast) | GI50 (IGROV1 ovarian) | GI50 (NCI-H226 lung) | GI50 (SN12C renal) | GI50 (SW-620 colon)
1 | CC(C)(O)CO/N=C1\C(c2c(O)[nH]c3ccccc23)=Nc2ccccc21 | 8.01 µM | 2.32 µM | 2.29 µM | 3.1 µM | 16.4 µM | > 100 µM | 13.9 µM | > 80.1 µM | > 86.4 µM |  |  |  |  |  |  |  |  |  |  | 
2 | c1ccc(CCN2CCOCC2)nc1 | > 100 µM | > 100 µM | > 100 µM | > 100 µM | > 100 µM | > 100 µM | > 100 µM | > 100 µM | > 100 µM | > 100 µM |  |  |  |  |  |  |  |  |  | 
3 | c1ccc2sc(C3(N4CCC5(CC4)OCCO5)CCCCC3)cc2c1 | > 100 µM | > 100 µM | > 100 µM | 54.9 µM | > 100 µM | > 100 µM | > 100 µM | > 100 µM | > 100 µM | > 100 µM |  |  |  |  |  |  |  |  |  | 
4 | NC(=O)Nc1ccc(C(=O)NCCCNC(=O)c2ccc(NC(N)=O)cc2)cc1 | > 100 µM | > 100 µM | > 100 µM | > 100 µM | > 100 µM | > 100 µM | > 100 µM |  | > 100 µM | > 100 µM |  |  |  |  |  |  |  |  |  | 
5 | CCCC1=C(C(=O)OCC)C(c2ccccc2OC)C(C#N)=C(N)O1 (stereo not drawn) | > 100 µM | > 100 µM | > 100 µM | > 100 µM | > 100 µM | > 100 µM | 36.4 µM | 41.4 µM | > 100 µM | 58.2 µM | 48.1 µM | 57.5 µM | 66.3 µM | 33.7 µM | > 100000 nM | > 100 µM | 14.7 µM | 22.5 µM | 16.6 µM | 27.8 µM
6 | COc1ccccc1/C=C/c1c(N)ncnc1Nc1cccc(Cl)c1 | 26 µM | 58.9 µM |  | 0.969 µM | 40 µM | 44 µM | 27.7 µM | 30.9 µM | > 100 µM | 49 µM |  |  |  |  |  |  |  |  |  | 
7 | CN=C(N)/N=C(\N)Nc1cc2ccccc2c2ccccc12 | 26.3 µM | 31.2 µM | 28.2 µM | 19.8 µM | 33.4 µM | 42.3 µM | 35.5 µM | 27.2 µM | 34 µM | 37.4 µM |  |  |  |  |  |  |  |  |  | 
8 | O=C1/C(=C/c2ccc(Cl)cc2)N=C(c2ccccc2)N1c1nc2c(Cl)cc(Cl)cc2s1 | > 100 µM | > 100 µM | > 100 µM | 43.1 µM | > 100 µM | 90.1 µM | > 100 µM | 57.8 µM | > 100 µM |  |  |  |  |  |  |  |  |  |  | 
9 | COc1c(O)c(O)c2c(c1O)C(=O)c1cc(C)cc(O)c1C2=O | > 100 µM | > 100 µM | 93.2 µM | > 100 µM | > 100 µM | 78.9 µM | > 100 µM | > 100 µM | > 100 µM | > 93.5 µM |  |  |  |  |  |  |  |  |  | 
10 | CCOC(=O)C(=O)Nc1c(CC)cccc1C(C)CC (stereo not drawn) | > 100 µM | > 100 µM | > 100 µM | > 100 µM | > 100 µM |  | > 100 µM | > 100 µM | > 100 µM | > 100 µM |  |  |  |  |  |  |  |  |  | 
11 | Nc1cccc2c1C1=NNC(=O)CC1C2 (stereo not drawn) |  | > 100 µM | > 100 µM | > 100 µM | > 100 µM |  | > 100 µM | > 100 µM | > 100 µM | > 100 µM |  |  |  |  |  |  |  |  |  | 
12 | O=C1C(c2c(O)[nH]c3ccccc23)=Nc2ccc(Br)cc21 | 77 µM | > 100 µM | > 100 µM | > 100 µM | 74.1 µM | 72.8 µM | > 100 µM | > 100 µM | > 100 µM | 68.1 µM |  |  |  |  |  |  |  |  |  | 
13 | Cc1c(NC(=O)c2cc([N+](=O)[O-])cc([N+](=O)[O-])c2)c(=O)n(-c2ccccc2)n1C |  | > 100 µM | 52.2 µM | > 100 µM | > 100 µM | > 100 µM | > 100 µM | > 100 µM | > 100 µM | > 100 µM |  |  |  |  |  |  |  |  |  | 
14 | C[C@H](N[C@H]1CCC[C@]1(O)C#Cc1ccc2c(c1)OCO2)c1ccccc1 | > 25 µM | > 25 µM | > 25 µM | > 25 µM | > 25 µM | > 25 µM | > 25 µM |  |  | > 25 µM |  |  |  |  |  |  |  |  |  | 
15 | Cc1ccc2ccc3ccc(C)nc3c2n1 | > 100 µM | > 100 µM | > 100 µM | > 100 µM | > 100 µM | > 100 µM | > 100 µM | > 100 µM | > 100 µM | > 100 µM |  |  |  |  |  |  |  |  |  | 
16 | O=C1C(=c2cc3c(c4ccccc24)=NC24CCCCC2C(c2ccccc2)C=C(c2ccccc2)N34)C(=O)c2ccccc21 (stereo not drawn) | > 100 µM | > 100 µM | > 100 µM | > 100 µM | > 100 µM | > 100 µM | > 100 µM | > 100 µM | > 100 µM | > 100 µM |  |  |  |  |  |  |  |  |  | 
17 | O=C(Nc1sccc1S(=O)(=O)c1ccc(Cl)cc1)c1ccccc1 | > 100 µM | > 100 µM | > 100 µM | > 100 µM | > 100 µM | > 100 µM | > 100 µM | > 100 µM | > 100 µM | > 100 µM |  |  |  |  |  |  |  |  |  | 
18 | C/C=C1/CN2CCC34c5ccccc5N(C)C23C2CC1C4(C(=O)OC)C(O)O2 (stereo not drawn) | > 100 µM | > 100 µM | > 100 µM | > 100 µM | > 100 µM | > 100 µM | > 100 µM | > 100 µM | > 100 µM | > 100 µM |  |  |  |  |  |  |  |  |  | 
19 | Cc1c2cc[n+](C)cc2c(C)c2c1[nH]c1ccc(Cl)cc12 | 61.7 µM | 53.4 µM | 10.9 µM | 21.5 µM | 6.95 µM | 0.743 µM | 38.2 µM | 3.42 µM | 19.4 µM | 4.57 µM |  |  |  |  |  |  |  |  |  | 
20 | CSc1ccc(-c2cc(-c3nc4ccccc4[nH]3)nc(N)c2C#N)cc1 | > 100 µM | 54.4 µM | 34.7 µM | 48.9 µM | 42.1 µM | > 100 µM | 55.9 µM | > 100 µM | > 100 µM | 79.5 µM |  |  |  |  |  |  |  |  |  | 
21 | C=Cc1cc(OC)c2c(c1)c(=O)oc1c2cc(OC)c2c(O)ccc(C3OC(C)C(O)C(C)(O)C3O)c21 (stereo not drawn) |  | 0.0916 µM | 0.409 µM | 0.0256 µM |  | 0.00683 µM | 1.08 µM |  |  |  |  | 0.00224 µM |  |  | 0.0967 nM |  | 0.00143 µM |  | 0.00149 µM | 0.000502 µM
22 | C[C@@H](CO)C1=CC(C#C[Si](C)(C)C)N(C(=O)Oc2ccccc2)c2ccccc21 (stereo partly drawn) | 42.1 µM | 56.8 µM | > 100 µM | 57.2 µM | 30 µM | 47 µM | 36.4 µM | 30.9 µM | > 100 µM | 44 µM |  |  |  |  |  |  |  |  |  | 
23 | Cc1ccc([N+](=O)[O-])cc1S(=O)(=O)Nc1ccc(C2=NN(C(=O)c3ccccc3)C(c3cccs3)C2)cc1 (stereo not drawn) | > 100 µM | > 100 µM | 32.8 µM | > 100 µM | 78.3 µM | > 100 µM | > 100 µM | 66.3 µM | > 100 µM | 88.3 µM |  |  |  |  |  |  |  |  |  | 
24 | CNS(=O)(=O)c1ccc2[nH]c(O)c(C3=Nc4ccccc4C3=O)c2c1 | > 100 µM | > 100 µM | > 100 µM | > 100 µM | > 100 µM | > 100 µM | > 100 µM | > 100 µM | > 100 µM | > 100 µM |  |  |  |  |  |  |  |  |  | 
25 | N#CCCOCN(CO)c1nc(N(CO)COCCC#N)nc(N(CO)COCCC#N)n1 | 76.1 µM |  | 32.3 µM | 41.6 µM | > 100 µM |  | > 100 µM | 44.2 µM | 29.5 µM | 53.1 µM |  |  |  |  |  |  |  |  |  | 
26 | COc1cc(NC(=O)CSc2nc3ccccc3c(=O)n2CCc2ccccc2)cc(OC)c1OC |  |  |  | > 100 µM | 4.88 µM | > 100 µM | 4.46 µM |  |  | 7.16 µM |  |  |  | > 100 µM | 2120 nM | 3.52 µM | 1.93 µM | 2.14 µM |  | 
27 | O=C(NCCNc1nccc(-c2c(-c3cccc(O)c3)nc3sccn23)n1)Nc1cccc(C(F)(F)F)c1 | 45.7 µM | 50.5 µM | 12 µM | 6.03 µM | 23.4 µM | 17.8 µM | 13.1 µM | 20 µM | 13.4 µM | 28.5 µM | 5.79 µM | 14.2 µM | 3.36 µM | 2.85 µM | 8330 nM | 3.56 µM | 3.48 µM | 9.99 µM | 3.42 µM | 3.84 µM
28 | CC(=O)OC[C@@]1(C)[C@@H]2[C@@H]3[C@@]4(CO[C@]3(C)C(=O)[C@@]3(O)C[C@H](C)[C@H](OC(C)=O)[C@@H]3[C@H]4OC(C)=O)[C@H](OC(=O)c3ccccc3)C[C@@H]21 | > 100 µM | > 100 µM | > 100 µM | > 100 µM | > 100 µM | > 100 µM | > 100 µM | > 100 µM | > 100 µM | > 100 µM |  |  |  |  |  |  |  |  |  | 
